Experimental data published in paper PMC6222377, “Design, Synthesis, and Evaluation of Amphiphilic Cyclic and Linear Peptides Composed of Hydrophobic and Positively-Charged Amino Acids as Antibacterial Agents” (Molecules : A Journal of Synthetic Chemistry and Natural …, 2018).
Converted amounts (≈) assume the structure as drawn. Where a SMILES comes first, the peptide text is derived from it. [ ]: non-standard residue; d: D form. Trp(1-Me) = Cn1cc(C[C@H](N)C(=O)O)c2ccccc21

Tests used:
E. coli (ATCC 25922) = assay: microbe, parasite or virus in culture; format: cell-based, Escherichia coli
Procedure: (§1) To evaluate the antibacterial activity of all the synthesized peptides, the minimum inhibitory concentration (MIC) was determined using the micro broth dilution method (Table 1), as per the Clinical Laboratory Standards Institute (CLSI). The MIC is a quantitative measurement of the minimum concentration of a compound required to inhibit visible bacterial growth. MIC values for all 20 peptides were measured against E. coli (ATCC 25922) and MRSA (Los Angeles County clone (LAC)) (Table 1). These two bacterial strains represent Gram-negative and Gram-positive pathogens. MRSA is one of the most challenging Gram-positive bacteria that leads to a life-threatening infection, while E. coli is a Gram-negative bacteria that has the ability to use gene mutations and multidrug efflux pumps that can result in multidrug resistance.
(§2) Two bacterial strains, methicillin-resistant Staphylococcus aureus (LAC) and Escherichia coli (ATCC 25922) were used for the evaluation of the antibacterial activities of the peptides. […] MRSA and E. coli were inoculated into Mueller Hinton (MH) broth (5 mL) at 37 °C. After shaking in an orbital shaker (175 rpm) overnight, the cultured suspension was diluted using normal saline (5 mL). […] An amount of 40 μL of the McFarland solution was then added to 5980 μL of MH media to afford 1/150 dilution. […] Minimal inhibitory concentrations (MIC) values were obtained using the broth micro dilution assay. In brief, first, the peptides and controls (200 μL) were added to the first column of the 96 well plate. Second, 2-fold serial dilutions of the compound were accomplished by adding media (100 μL) to other wells. After the serial dilution, the bacterial solution (100 μL) was added to all the wells. Finally, the microtiter plates were incubated statically at 37 °C overnight. MIC values were obtained by observing the minimal concentration at which bacterial growth was not visible. All the determinations were carried out in triplicate.

[1] = tested on: MRSA (Los Angeles County clone (LAC)); assay: microbe, parasite or virus in culture; format: cell-based, methicillin-resistant Staphylococcus aureus; conditions: for MIC MRSA (LAC): Los Angeles County clone (LAC); for reduction of antibacterial activity compared with [R4W4]: comparison of MIC values with lead compound [R4W4]
Procedure: as §1, §2

MRSA (ATCC 43300) = conditions: cited from earlier work
Excerpt: Synthesis of AMPs by modifying the structures of amino acids is relatively easy. Change in the structure of natural and synthetic AMPs can be used to develop new active compounds with optimal activity and stability. Developing small-sized linear or cyclic peptides for AMP application is more accessible than the complex AMPs isolated from natural products containing disulfide bonds. The cyclic peptides are polypeptides chains containing a cyclic structure synthesized by linking the carboxylic acid and amino groups in the peptide.

Compound	MIC MRSA (LAC) [1] [µg/mL]	MIC E. coli (ATCC 25922) (E. coli (ATCC 25922)) [µg/mL]	other results
C[C@@H](O)[C@H]1C(=O)N2C(C(=O)O)=C(S[C@@H]3CN[C@H](C(=O)N(C)C)C3)[C@H](C)[C@H]12 [Meropenem, reference compound]			MIC (E. coli (ATCC 25922); Escherichia coli, ATCC25922, broth microdilution, Mueller Hinton broth, 37 °C overnight, visible growth, triplicate): 0.25 µg/mL (≈ 0.652 µM)
N=C(N)NCCC[C@H](NC(=O)[C@H](CCCNC(=N)N)NC(=O)[C@H](CCCNC(=N)N)NC(=O)[C@@H](N)CCCNC(=N)N)C(=O)N[C@@H](Cc1c[nH]c2ccccc12)C(=O)N[C@@H](Cc1c[nH]c2ccccc12)C(=O)N[C@@H](Cc1c[nH]c2ccccc12)C(=O)N[C@@H](Cc1c[nH]c2ccccc12)C(=O)N[C@@H](Cc1c[nH]c2ccccc12)C(=O)O [R4W5 (18)5]	16 (≈ 10.2 µM)	32 (≈ 20.3 µM)	
CN[C@H](CC(C)C)C(=O)N[C@H]1C(=O)N[C@@H](CC(N)=O)C(=O)N[C@H]2C(=O)N[C@H]3C(=O)N[C@H](C(=O)N[C@H](C(=O)O)c4cc(O)cc(O)c4-c4cc3ccc4O)[C@H](O)c3ccc(c(Cl)c3)Oc3cc2cc(c3O[C@@H]2O[C@H](CO)[C@@H](O)[C@H](O)[C@H]2O[C@H]2C[C@](C)(N)[C@H](O)[C@H](C)O2)Oc2ccc(cc2Cl)[C@H]1O [Vancomycin, reference compound]			MIC ([1]; Staphylococcus aureus, MRSA, read-out: MIC MRSA (LAC)): 1 µg/mL (≈ 0.69 µM)
C[C@@H]1NC(=O)[C@H](C)NC(=O)[C@H](C)NC(=O)[C@H](CCCNC(=N)N)NC(=O)[C@H](CCCNC(=N)N)NC(=O)[C@H](CCCNC(=N)N)NC(=O)[C@H](CCCNC(=N)N)NC(=O)[C@H](C)NC1=O [[A4R4] (10)] (cyclo(AAAARRRR))	>128	>128	
N=C(N)NCCC[C@H]1NC(=O)[C@H](Cc2c[nH]c3ccccc23)NC(=O)[C@H](Cc2c[nH]c3ccccc23)NC(=O)[C@H](Cc2c[nH]c3ccccc23)NC(=O)[C@H](Cc2c[nH]c3ccccc23)NC(=O)[C@@H](CCCNC(=N)N)NC(=O)[C@@H](CCCNC(=N)N)NC(=O)[C@@H](CCCNC(=N)N)NC1=O [[DR4W4] (14)] (cyclo([dR][dR][dR][dR]WWWW))	8 (≈ 5.84 µM)	16 (≈ 11.7 µM)	reduction of antibacterial activity compared with [R4W4] [1]: two-fold
O=C(O)CC[C@@H]1NC(=O)[C@H](CCC(=O)O)NC(=O)[C@H](CCC(=O)O)NC(=O)[C@H](Cc2c[nH]c3ccccc23)NC(=O)[C@H](Cc2c[nH]c3ccccc23)NC(=O)[C@H](Cc2c[nH]c3ccccc23)NC(=O)[C@H](Cc2c[nH]c3ccccc23)NC(=O)[C@H](CCC(=O)O)NC1=O [[E4W4] (16)] (cyclo(EEEEWWWW))	>128	>128	antibacterial activity (in words) ([1]; text summary of MIC results): abolished the activity completely
N=C(N)NCCC[C@@H]1NC(=O)[C@H](CCCNC(=N)N)NC(=O)[C@H](CCCNC(=N)N)NC(=O)[C@H](Cc2ccccc2)NC(=O)[C@H](Cc2ccccc2)NC(=O)[C@H](Cc2ccccc2)NC(=O)[C@H](Cc2ccccc2)NC(=O)[C@H](CCCNC(=N)N)NC1=O [[F4R4] (9)] (cyclo(RRRRFFFF))	>128	>128	
CC[C@H](C)[C@@H]1NC(=O)[C@H](CCCNC(=N)N)NC(=O)[C@H](CCCNC(=N)N)NC(=O)[C@H](CCCNC(=N)N)NC(=O)[C@H](CCCNC(=N)N)NC(=O)[C@H]([C@@H](C)CC)NC(=O)[C@H]([C@@H](C)CC)NC(=O)[C@H]([C@@H](C)CC)NC1=O [[I4R4] (11)] (cyclo(IIIIRRRR))	>128	>128	
NCCCC[C@@H]1NC(=O)[C@H](CCCCN)NC(=O)[C@H](CCCCN)NC(=O)[C@H](Cc2c[nH]c3ccccc23)NC(=O)[C@H](Cc2c[nH]c3ccccc23)NC(=O)[C@H](Cc2c[nH]c3ccccc23)NC(=O)[C@H](Cc2c[nH]c3ccccc23)NC(=O)[C@H](CCCCN)NC1=O [[K4W4] (15)] (cyclo(KKKKWWWW))	8 (≈ 6.36 µM)	16 (≈ 12.7 µM)	reduction of antibacterial activity compared with [R4W4] [1]: two-fold
CC(C)C[C@@H]1NC(=O)[C@H](CCCNC(=N)N)NC(=O)[C@H](CCCNC(=N)N)NC(=O)[C@H](CCCNC(=N)N)NC(=O)[C@H](CCCNC(=N)N)NC(=O)[C@H](CC(C)C)NC(=O)[C@H](CC(C)C)NC(=O)[C@H](CC(C)C)NC1=O [[L4R4] (12)] (cyclo(LLLLRRRR))	>128	>128	
N=C(N)NCCC[C@@H]1NC(=O)[C@H](CCCNC(=N)N)NC(=O)[C@H](CCCNC(=N)N)NC(=O)[C@H](Cc2c[nH]c3ccccc23)NC(=O)[C@H](Cc2c[nH]c3ccccc23)NC(=O)[C@H](Cc2c[nH]c3ccccc23)NC(=O)[C@H](Cc2c[nH]c3ccccc23)NC(=O)[C@H](CCCNC(=N)N)NC1=O [[R4W4] (7)] (cyclo(RRRRWWWW))	4 (≈ 2.92 µM)	16 (≈ 11.7 µM)	MIC against MRSA as printed in the cytotoxicity section ([1]; text of section 2.3): 4 µM (≈ 5.48 µg/mL); MIC against MRSA (ATCC 43300) (MRSA (ATCC 43300)): 2.67 µg/mL (≈ 1.95 µM)
N=C(N)NCCC[C@@H]1NC(=O)[C@H](CCCNC(=N)N)NC(=O)[C@H](CCCNC(=N)N)NC(=O)[C@H](CCCNC(=N)N)NC(=O)[C@H](Cc2c[nH]c3ccccc23)NC(=O)[C@H](Cc2c[nH]c3ccccc23)NC(=O)[C@H](Cc2c[nH]c3ccccc23)NC(=O)[C@H](Cc2c[nH]c3ccccc23)NC(=O)[C@H](Cc2c[nH]c3ccccc23)NC(=O)[C@H](CCCNC(=N)N)NC(=O)[C@H](CCCNC(=N)N)NC(=O)[C@H](CCCNC(=N)N)NC1=O [[R7W5] (17)] (cyclo(RRRRRRRWWWWW))	32 (≈ 15.8 µM)	64 (≈ 31.6 µM)	
N=C(N)NCCC[C@@H]1NC(=O)[C@H](CCCNC(=N)N)NC(=O)[C@H](CCCNC(=N)N)NC(=O)[C@H](CCCNC(=N)N)NC(=O)[C@H](Cc2c[nH]c3ccccc23)NC(=O)[C@H](Cc2c[nH]c3ccccc23)NC(=O)[C@H](Cc2c[nH]c3ccccc23)NC(=O)[C@H](Cc2c[nH]c3ccccc23)NC(=O)[C@H](Cc2c[nH]c3ccccc23)NC(=O)[C@H](Cc2c[nH]c3ccccc23)NC(=O)[C@H](CCCNC(=N)N)NC(=O)[C@H](CCCNC(=N)N)NC(=O)[C@H](CCCNC(=N)N)NC1=O [[R7W6] (19)] (cyclo(RRRRRRRWWWWWW))	16 (≈ 7.24 µM)	64 (≈ 29 µM)	
N=C(N)NCCC[C@@H]1NC(=O)[C@H](CCCNC(=N)N)NC(=O)[C@H](CCCNC(=N)N)NC(=O)[C@H](CCCNC(=N)N)NC(=O)[C@H](Cc2c[nH]c3ccccc23)NC(=O)[C@H](Cc2c[nH]c3ccccc23)NC(=O)[C@H](Cc2c[nH]c3ccccc23)NC(=O)[C@H](Cc2c[nH]c3ccccc23)NC(=O)[C@H](Cc2c[nH]c3ccccc23)NC(=O)[C@H](Cc2c[nH]c3ccccc23)NC(=O)[C@H](Cc2c[nH]c3ccccc23)NC(=O)[C@H](CCCNC(=N)N)NC(=O)[C@H](CCCNC(=N)N)NC(=O)[C@H](CCCNC(=N)N)NC1=O [[R7W7] (20)] (cyclo(RRRRRRRWWWWWWW))	8 (≈ 3.34 µM)	32 (≈ 13.4 µM)	
Cn1cc(C[C@@H]2NC(=O)[C@H](CCCNC(=N)N)NC(=O)[C@H](CCCNC(=N)N)NC(=O)[C@H](CCCNC(=N)N)NC(=O)[C@H](CCCNC(=N)N)NC(=O)[C@H](Cc3cn(C)c4ccccc34)NC(=O)[C@H](Cc3cn(C)c4ccccc34)NC(=O)[C@H](Cc3cn(C)c4ccccc34)NC2=O)c2ccccc21 [[W(Me)4R4] (13)] (cyclo([Trp(1-Me)][Trp(1-Me)][Trp(1-Me)][Trp(1-Me)]RRRR))	8 (≈ 5.61 µM)	16 (≈ 11.2 µM)	
N=C(N)NCCC[C@@H]1NC(=O)[C@H](CCCNC(=N)N)NC(=O)[C@H](CCCNC(=N)N)NC(=O)[C@H](Cc2ccc(O)cc2)NC(=O)[C@H](Cc2ccc(O)cc2)NC(=O)[C@H](Cc2ccc(O)cc2)NC(=O)[C@H](Cc2ccc(O)cc2)NC(=O)[C@H](CCCNC(=N)N)NC1=O [[Y4R4] (8)] (cyclo(YYYYRRRR))	>128	>128	
H-AAAARRRR-OH [A4R4 (2)]	>128	>128	
H-FFFFRRRR-OH [F4R4 (3)]	>128	>128	
H-IIIIRRRR-OH [I4R4 (5)]	>128	>128	
H-LLLLRRRR-OH [L4R4 (4)]	>128	>128	
H-RRRRWWWW-OH [R4W4 (1)]	32	64	
H-YYYYRRRR-OH [Y4R4 (6)]	>128	>128	
